In assay [1] the test system is HIV. Briefly: Direct HIV infection of PHA-blasts with peptide added before HIV. It is filed as cell-based, HIV-1. The settings on record: peptide added to PHA-blasts prior to HIV.
Assay [2] deals with HIV (primary M-tropic strain BL2). In words: Trans-infection assay, 293 clone 1D4 stably expressing gp-340 pulsed with HIV, cocultured with PHA-blasts. The assay is classed as cell-based, HIV-1. The settings on record: for mean P24, transmission by clone 1D4 in presence of peptide: average of 6 wells. On the procedure: FIG. 1. 293 cells stably expressing cell surface gp-340 enhance the transfer of HIV to target cells. (A) 293 cells and a clone, 1D4, stably expressing gp-340, were stained for surface expression of gp-340 using rabbit polyclonal antibody 1527. Isotype control stained cells shown are 293 cells, but the 1D4 clone gave the same pattern. (B) Clone 1D4 and 293 cells were pulsed with increasing IU of HIV BL2 virus with or without a V3-derived peptide 6284 (10 μg/ml) that blocks Env-gp-340 binding, washed and exposed to PHA-blasts for 7 days. IUs were calculated using PHA-blasts as target cells in a TCID50 assay. Experiment was performed in replicates of 6 wells per viral addition and data is expressed as the percentage of the wells that became infected.
Parental or gp-340 expressing 293 cells, VK2E6E7, Endo1E6E7, Ect1E6E7, or AGS cells or 1 mm^3 pieces of ectocervix obtained as described below seeded in 96 well plates were incubated with various IU inputs of HIV, in 100 μl final volume for 2 h at 37° C. and then extensively washed. Additional inhibitors, peptides or antibodies, were added to cells 30 min prior to pulsing with virus and replaced after cells were washed. Plates were centrifuged at 1250 rpm for 7 minutes between each wash. […] Infection was monitored by measuring supernatant-associated p24 Gag protein content on day 7. TCID50 was calculated using the Reed-Münch formula.
Secreted gp-340 found at high levels in the oral cavity and also exists in a cell surface-associated form, although mRNA containing exon 55, which encodes the putative transmembrane domain, has not yet been detected. […] The gp-340 expressing cell lines were measured for their ability to transmit cell-free HIV to human PHA- and IL-2-stimulated PBMCs (PHA-blasts). […] Infection was monitored by p24 Gag protein content in the culture supernatant in each well and scored for the presence or absence of infection. The assay used 6 replicates of cells for each viral dilution and condition and calculated the number of wells that became infected at each amount of added virus. […]

Another assay concerns HIV strain BL2. Briefly: Trans-infection assay, AGS cells expressing endogenous gp-340 to T cell blasts. The settings on record: peptide 10 μg/ml, 15 min preincubation, p24 7 days later. It is filed as cell-based, HIV-1. The protocol:
FIG. 2 Transmission of HIV by AGS cells expressing endogenous gp-340 is inhibited by peptide corresponding to the V3 domain of Env. AGS cells were preincubated with gp-340-specific peptide 6283 or 6284, and control peptide 6220 (10 μg/ml) for 15 min and then pulsed with decreasing amounts of HIV strain BL2. After viral exposure, the cells were washed four times to remove unbound virus and cocultured with T cell blasts in the absence of peptides for 24 h. The T cell blasts were then moved to new wells and p24 Gag antigen content was measured 7 days later. IUs were calculated using PHA-blasts as target cells in a TCID50 assay. Experiment was performed in replicates of six per virus concentration. Data is expressed as the percentage of the 6 wells in which the cells became infected for each virus concentration.
(§1) Parental or gp-340 expressing 293 cells, VK2E6E7, Endo1E6E7, Ect1E6E7, or AGS cells or 1 mm^3 pieces of ectocervix obtained as described below seeded in 96 well plates were incubated with various IU inputs of HIV, in 100 μl final volume for 2 h at 37° C. and then extensively washed. Additional inhibitors, peptides or antibodies, were added to cells 30 min prior to pulsing with virus and replaced after cells were washed. Plates were centrifuged at 1250 rpm for 7 minutes between each wash. After viral incubation and washing, PHA-blasts were cocultured with the pulsed cells for 7 days at 37° C. with IL-2. Infection was monitored by measuring supernatant-associated p24 Gag protein content on day 7. TCID50 was calculated using the Reed-Münch formula.
To examine native expressed gp-340, the gastrointestinal carcinoma cell line AGS, which is expresses gp-340, was analyzed for its ability to transmit HIV in vitro. AGS cells enhanced transmission of HIV to target CD4^+ T cells. Cells were infected in 50% of the wells when 0.08 infectious units (IU) of virus were pulsed per well. This represented a 6-fold enhancement in the viral infectivity by gp-340. Peptides 6283 and 6284, derived from the proposed gp-340 binding site in Env, abolished the enhancement in infectivity. […]

In a further assay the target is gp-340 (Homo sapiens, UniProt Q9UGM3). The settings on record: previously shown/demonstrated; cited from earlier work.
For a further assay, the system named is HIV-1 BL2 virus. In words: Trans-infection assay, vaginal epithelial cells (VK2E6E7) to PHA-blasts. The assay is classed as cell-based. The settings on record: pre-incubation with antibody, or peptide at time of viral pulsing; p24 after 7 days. The protocol: Vaginal epithelial cells (VK2E6E7) were incubated with isotype control or gp-340-specific antibodies 116 or DAPA and then pulsed with HIV-1 BL2 virus. After extensive washing, PHA-blasts were added for 24 h and then moved to new plates without VK2E6E7 cells. After 7 days, p24 Gag protein content in the supernatant was measured. Samples were run in triplicate and standard error of the mean is given.
as §1
Cell lines were pulsed with decreasing amounts of HIV Ba-L, washed and had target cells immediately added or added after 2 or 4 days of culture. […]

The test system of assay [3] is HIV. Briefly: Trans-infection by genital tract epithelial cell lines. The assay is classed as cell-based. The settings on record: treatment completely removes syndecan expression.

Chain of gp-340 (Q9UGM3 20-2413): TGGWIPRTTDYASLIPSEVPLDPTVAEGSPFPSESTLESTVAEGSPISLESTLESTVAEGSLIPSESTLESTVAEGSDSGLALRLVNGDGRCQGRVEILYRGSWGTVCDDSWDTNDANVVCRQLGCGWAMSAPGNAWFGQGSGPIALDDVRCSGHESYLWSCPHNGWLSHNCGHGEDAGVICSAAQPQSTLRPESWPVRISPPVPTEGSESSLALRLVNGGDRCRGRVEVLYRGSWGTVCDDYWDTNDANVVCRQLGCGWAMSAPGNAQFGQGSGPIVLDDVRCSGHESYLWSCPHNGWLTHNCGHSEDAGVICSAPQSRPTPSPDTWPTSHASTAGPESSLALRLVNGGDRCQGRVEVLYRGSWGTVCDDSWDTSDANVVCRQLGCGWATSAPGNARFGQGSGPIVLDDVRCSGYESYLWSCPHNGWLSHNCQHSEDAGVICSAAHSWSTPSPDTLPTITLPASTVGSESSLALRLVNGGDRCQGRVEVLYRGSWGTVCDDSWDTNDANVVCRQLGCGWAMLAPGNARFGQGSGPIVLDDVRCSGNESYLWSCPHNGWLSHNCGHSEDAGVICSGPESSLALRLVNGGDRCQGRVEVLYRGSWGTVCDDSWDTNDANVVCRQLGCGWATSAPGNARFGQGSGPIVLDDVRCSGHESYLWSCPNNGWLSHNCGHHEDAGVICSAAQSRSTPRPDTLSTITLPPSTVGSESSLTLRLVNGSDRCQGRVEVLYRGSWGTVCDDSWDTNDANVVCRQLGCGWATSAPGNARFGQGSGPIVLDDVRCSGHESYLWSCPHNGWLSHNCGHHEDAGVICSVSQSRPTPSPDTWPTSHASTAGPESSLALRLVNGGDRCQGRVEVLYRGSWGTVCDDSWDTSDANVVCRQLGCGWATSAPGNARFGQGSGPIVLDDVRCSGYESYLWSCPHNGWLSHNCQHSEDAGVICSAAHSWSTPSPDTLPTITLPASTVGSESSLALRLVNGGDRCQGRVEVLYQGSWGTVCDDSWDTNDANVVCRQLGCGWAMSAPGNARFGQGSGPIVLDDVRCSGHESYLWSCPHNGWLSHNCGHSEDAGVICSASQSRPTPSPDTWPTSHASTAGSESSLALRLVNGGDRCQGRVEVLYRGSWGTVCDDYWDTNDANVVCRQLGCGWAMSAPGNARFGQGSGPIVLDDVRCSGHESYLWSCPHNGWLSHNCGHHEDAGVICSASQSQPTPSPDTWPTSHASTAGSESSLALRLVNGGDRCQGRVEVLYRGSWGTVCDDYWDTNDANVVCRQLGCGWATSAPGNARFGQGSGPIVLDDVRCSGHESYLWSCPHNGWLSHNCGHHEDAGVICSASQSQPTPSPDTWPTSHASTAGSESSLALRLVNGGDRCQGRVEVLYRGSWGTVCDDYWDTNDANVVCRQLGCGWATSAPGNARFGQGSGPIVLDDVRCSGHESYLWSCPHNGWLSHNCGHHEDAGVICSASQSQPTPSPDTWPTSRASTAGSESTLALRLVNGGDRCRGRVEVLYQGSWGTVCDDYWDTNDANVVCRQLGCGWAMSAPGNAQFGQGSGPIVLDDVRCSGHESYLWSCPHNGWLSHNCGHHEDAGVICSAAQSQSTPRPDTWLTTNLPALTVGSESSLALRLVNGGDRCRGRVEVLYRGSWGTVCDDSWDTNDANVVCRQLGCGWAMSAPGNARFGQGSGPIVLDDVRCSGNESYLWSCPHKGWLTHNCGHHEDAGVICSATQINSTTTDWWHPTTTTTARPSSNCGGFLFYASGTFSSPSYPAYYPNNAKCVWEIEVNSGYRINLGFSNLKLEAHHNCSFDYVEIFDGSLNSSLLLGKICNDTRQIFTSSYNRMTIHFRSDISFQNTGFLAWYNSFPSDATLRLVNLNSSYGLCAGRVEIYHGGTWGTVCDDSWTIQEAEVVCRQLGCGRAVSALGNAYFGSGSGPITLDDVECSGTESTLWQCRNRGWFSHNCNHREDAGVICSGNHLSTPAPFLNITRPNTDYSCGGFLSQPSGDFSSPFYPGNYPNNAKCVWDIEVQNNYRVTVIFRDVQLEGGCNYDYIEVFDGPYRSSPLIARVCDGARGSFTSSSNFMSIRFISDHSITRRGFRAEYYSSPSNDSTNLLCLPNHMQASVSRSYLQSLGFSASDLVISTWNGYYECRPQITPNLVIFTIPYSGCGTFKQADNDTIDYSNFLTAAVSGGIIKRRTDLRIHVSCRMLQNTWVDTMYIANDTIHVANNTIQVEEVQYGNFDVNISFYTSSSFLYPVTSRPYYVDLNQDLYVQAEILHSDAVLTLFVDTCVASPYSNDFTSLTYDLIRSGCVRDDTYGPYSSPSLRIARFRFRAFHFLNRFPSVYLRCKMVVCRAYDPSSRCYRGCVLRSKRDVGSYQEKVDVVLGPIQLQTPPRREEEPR

For the molecule CTRPNYNKRKRIHIG [peptide 6284], the “infection of PHA-blasts” value with HIV [1] is “did not affect”. In addition, the “mean P24, transmission by clone 1D4 in presence of peptide” value in assay [2] (0.11 IU viral input, without peptide 184) is listed as 7; in assay [2] (0.33 IU viral input, without peptide 239), 7. For the same molecule, the “enhancement of HIV trans-infection (TCID50) by gp-340-expressing cells” value in assay [2] (gp-340-expressing 293 cells pre-incubated with peptide 10 μg/ml, HIV BL2, PHA-blasts 7 days) was “abolished”. Also, the “enhancement in infectivity (transmission of HIV by AGS cells)” value in the assay with HIV strain BL2 is reported as “abolished”. Also, the “Env binding to gp-340” value with gp-340 was “block”.
DAPA: the “ability of VK2E6E7 cells to bind and transmit HIV to PHA-blasts” value in the assay with HIV-1 BL2 virus is given as “markedly decreased”. Further, on gp-340, the “Env binding to gp-340” value is given as “inhibit”.
“KEATTTLFCASDAKA (Human) [peptide 6220, control peptide derived from another part of Env, reference compound]”: in the assay on HIV strain BL2, the “enhancement in infectivity (transmission of HIV by AGS cells)” value was “had no impact”.
The same measure, in the same setting: as for VQINCTRPNYNKRKR [peptide 6283], the entry is “abolished”.

B1: heparinase: enzyme treatment that completely removes syndecan expression (protein, UniProt Q59289 25-659, looked up)
Heparin-sulfate lyase: QSSSITRKDFDHINLEYSGLEKVNKAVAAGNYDDAAKALLAYYREKSKAREPDFSNAEKPADIRQPIDKVTREMADKALVHQFQPHKGYGYFDYGKDINWQMWPVKDNEVRWQLHRVKWWQAMALVYHATGDEKYAREWVYQYSDWARKNPLGLSQDNDKFVWRPLEVSDRVQSLPPTFSLFVNSPAFTPAFLMEFLNSYHQQADYLSTHYAEQGNHRLFEAQRNLFAGVSFPEFKDSPRWRQTGISVLNTEIKKQVYADGMQFELSPIYHVAAIDIFLKAYGSAKRVNLEKEFPQSYVQTVENMIMALISISLPDYNTPMFGDSWITDKNFRMAQFASWARVFPANQAIKYFATDGKQGKAPNFLSKALSNAGFYTFRSGWDKNATVMVLKASPPGEFHAQPDNGTFELFIKGRNFTPDAGVFVYSGDEAIMKLRNWYRQTRIHSTLTLDNQNMVITKARQNKWETGNNLDVLTYTNPSYPNLDHQRSVLFINKKYFLVIDRAIGEATGNLGVHWQLKEDSNPVFDKTKNRVYTTYRDGNNLMIQSLNADRTSLNEEEGKVSYVYNKELKRPAFVFEKPKKNAGTQNFVSIVYPYDGQKAPEISIRENKGNDFEKGKLNLTLTINGKQQLVLVP
As to B1, the “trans-infection after heparinase treatment” value in the assay on HIV [3] is “no effect”.
